Experimental data as given in PubChem BioAssay (NCI).
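How tested: cells in 96-well plates exposed to compound for 48 hours at five concentrations. At the TGI there is no net growth.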 Where a SMILES comes first, the peptide text is derived from it. The star is where a group is joined. Cbz = O=C(OCc1ccccc1)*

Columns and labels:
Assay in all cases: NCI tumour cell line growth inhibition, 48 h
A549 NSCLC = tested on: A549 NSCLC
ACHN renal = tested on: ACHN renal
CAKI-1 renal = tested on: CAKI-1 renal
COLO 205 colon = tested on: COLO 205 colon
HCT-15 colon = tested on: HCT-15 colon
HOP-92 NSCLC = tested on: HOP-92 NSCLC
HS 578T breast = tested on: HS 578T breast
HT29 colon = tested on: HT29 colon
IGROV1 ovarian = tested on: IGROV1 ovarian
K-562 leukemia = tested on: K-562 leukemia
M14 melanoma = tested on: M14 melanoma
MDA-MB-435 = tested on: MDA-MB-435
NCI-H226 lung = tested on: NCI-H226 lung
NCI-H460 lung = tested on: NCI-H460 lung
NCI/ADR-RES ovarian = tested on: NCI/ADR-RES ovarian
PC-3 prostate = tested on: PC-3 prostate
SK-MEL-5 melanoma = tested on: SK-MEL-5 melanoma
SNB-75 CNS = tested on: SNB-75 CNS
SW-620 colon = tested on: SW-620 colon
TK-10 renal = tested on: TK-10 renal

Compound	TGI (A549 NSCLC)	TGI (ACHN renal)	TGI (CAKI-1 renal)	TGI (COLO 205 colon)	TGI (HCT-15 colon)	TGI (HOP-92 NSCLC)	TGI (HS 578T breast)	TGI (HT29 colon)	TGI (IGROV1 ovarian)	TGI (K-562 leukemia)	TGI (M14 melanoma)	TGI (MDA-MB-435)	TGI (NCI-H226 lung)	TGI (NCI-H460 lung)	TGI (NCI/ADR-RES ovarian)	TGI (PC-3 prostate)	TGI (SK-MEL-5 melanoma)	TGI (SNB-75 CNS)	TGI (SW-620 colon)	TGI (TK-10 renal)
Cc1ccc(N=C2OP(=O)(Nc3ccc(C)cc3)Oc3ccccc32)cc1 (centres undefined)	> 100 µM	> 100 µM	> 100 µM	> 100 µM	> 100 µM	90.5 µM	> 100 µM	> 100 µM	> 100 µM	> 100 µM	> 100 µM	> 100 µM	> 100 µM	> 100 µM	> 100 µM	> 100 µM	> 100 µM	> 100 µM	> 100 µM	> 100 µM
Cc1c(C(=O)Nc2ccccc2)nnn1-c1ccnc2cc(C(F)(F)F)ccc12	> 100 µM	> 100 µM	> 100 µM	> 100 µM	> 100 µM	95.4 µM	> 100 µM	> 100 µM	> 100 µM	> 100 µM	> 100 µM	> 100 µM	> 100 µM	> 100 µM	> 100 µM	> 100 µM	52.6 µM	> 100 µM	> 100 µM	> 100 µM
N#Cc1sc2c(c1OC(=O)c1ccc(Cl)cc1Cl)c(=O)n(-c1ccccc1)c(=S)n2-c1ccccc1	> 100 µM	> 100 µM	54.5 µM	42.2 µM	59.5 µM	68.9 µM	89.6 µM	55 µM	38.6 µM	68 µM	36.6 µM	46.2 µM	66.8 µM	> 100 µM	50.3 µM	> 100 µM	34.6 µM	> 100 µM	72.7 µM	92.5 µM
O=C1CCC2(CC1CCS(=O)c1ccccc1)OCCO2 (centres undefined)	> 100 µM	> 100 µM	> 100 µM	> 100 µM	> 100 µM	> 100 µM	> 100 µM	> 100 µM	> 100 µM	> 100 µM	> 100 µM	> 100 µM	> 100 µM	> 100 µM	> 100 µM	> 100 µM	> 100 µM	> 100 µM	> 100 µM	> 100 µM
Cc1cccc2c(NCCN(C)C)c3cccc(C(=O)NCCN(C)C)c3nc12	29.2 µM	4.33 µM	4.92 µM	1.61 µM	13.9 µM	1.46 µM	1.82 µM	4.16 µM	6.64 µM	0.065 µM	2.44 µM	1.1 µM	5.68 µM	4.08 µM	11.6 µM	6.73 µM	0.962 µM	0.953 µM	7.78 µM	8.94 µM
COc1ccc2c(=O)c3c([nH]c2c1)OCC3=O	–	> 100 µM	> 100 µM	> 100 µM	> 100 µM	> 100 µM	> 100 µM	> 100 µM	> 100 µM	> 100 µM	> 100 µM	> 100 µM	> 100 µM	> 100 µM	> 100 µM	> 100 µM	> 100 µM	> 100 µM	> 100 µM	> 100 µM
NNC(=O)CC(=O)Nc1ccc(S(=O)(=O)c2ccc(NC(=O)CC(=O)NN)cc2)cc1	> 100 µM	> 100 µM	> 100 µM	> 100 µM	> 100 µM	> 100 µM	> 100 µM	> 100 µM	> 100 µM	> 100 µM	> 100 µM	> 100 µM	> 100 µM	> 100 µM	> 100 µM	> 100 µM	> 100 µM	> 100 µM	> 100 µM	> 100 µM
COCN1C(=N)C(C(=O)OC(C)(C)C)=C2C=C(O)C=CC21C (centres undefined)	34.9 µM	19.6 µM	28.5 µM	17.5 µM	27.5 µM	17.4 µM	82.9 µM	19.9 µM	28.2 µM	> 100 µM	29.5 µM	27.4 µM	30.6 µM	44.9 µM	69 µM	30.6 µM	28.6 µM	33.6 µM	17.5 µM	26.2 µM
O=C1NC(=NCc2ccc(F)cc2)N/C1=C\c1ccccc1Cl	41.8 µM	49.1 µM	70.8 µM	37.5 µM	71.2 µM	24.9 µM	> 100 µM	29.5 µM	> 100 µM	> 100 µM	31.6 µM	43.9 µM	69.3 µM	> 100 µM	86.1 µM	38.8 µM	33.6 µM	26.6 µM	31.1 µM	67.4 µM
Nc1ncnc2c1ncn2[C@@H]1O[C@H](COP(=O)(O)OP(=O)(O)OC[C@H]2O[C@@H](OCCCO)[C@H](O)[C@@H]2O)[C@@H](O)[C@H]1O	> 100 µM	> 100 µM	> 100 µM	> 100 µM	> 100 µM	> 100 µM	> 100 µM	> 100 µM	> 100 µM	> 100 µM	> 100 µM	> 100 µM	> 100 µM	> 100 µM	> 100 µM	> 100 µM	> 100 µM	> 100 µM	> 100 µM	> 100 µM
O=C(O)/C=C/c1ccc(OS(=O)(=O)O)cc1	> 100 µM	> 100 µM	> 100 µM	> 100 µM	> 100 µM	> 100 µM	> 100 µM	> 100 µM	> 100 µM	> 100 µM	> 100 µM	> 100 µM	> 100 µM	> 100 µM	> 100 µM	> 100 µM	> 100 µM	> 100 µM	> 100 µM	> 100 µM
Cc1oc2nc(N(C)C)nc(NN)c2c1C	> 100 µM	> 100 µM	> 100 µM	> 100 µM	> 100 µM	> 100 µM	> 100 µM	> 100 µM	> 100 µM	> 100 µM	> 100 µM	> 100 µM	> 100 µM	> 100 µM	> 100 µM	> 100 µM	> 100 µM	> 100 µM	> 100 µM	> 100 µM
CCCCc1nc(C)oc1C(C)C	> 100 µM	> 100 µM	> 100 µM	> 100 µM	> 100 µM	> 100 µM	> 100 µM	> 100 µM	> 100 µM	> 100 µM	> 100 µM	> 100 µM	> 100 µM	> 100 µM	> 100 µM	> 100 µM	> 100 µM	> 100 µM	> 100 µM	> 100 µM
COC(=O)C(CC(C)C)NC(=O)C(CCCN=C(N)N)NC(=O)OCc1ccccc1 (stereo not drawn) (Cbz-Arg-Leu-OMe; configuration not given here)	> 100 µM	> 100 µM	> 100 µM	> 100 µM	> 100 µM	> 100 µM	> 100 µM	> 100 µM	> 100 µM	> 100 µM	> 100 µM	> 100 µM	> 100 µM	> 100 µM	> 100 µM	> 100 µM	> 100 µM	> 100 µM	> 100 µM	> 100 µM
COn1oc(=O)c2ccccc21	> 100 µM	> 100 µM	> 100 µM	> 100 µM	> 100 µM	> 100 µM	> 100 µM	> 100 µM	> 100 µM	> 100 µM	> 100 µM	> 100 µM	> 100 µM	> 100 µM	> 100 µM	> 100 µM	> 100 µM	> 100 µM	> 100 µM	> 100 µM
O=C1/C(=C/c2ccccc2)CCc2ccc([N+](=O)[O-])cc21	> 100 µM	> 100 µM	> 100 µM	> 100 µM	> 100 µM	> 100 µM	> 100 µM	> 100 µM	> 100 µM	> 100 µM	> 96.4 µM	> 100 µM	> 100 µM	> 100 µM	> 100 µM	> 100 µM	> 91.2 µM	> 74.6 µM	> 100 µM	> 100 µM
O=C(O)c1ccccc1/C=C1/Cc2ccc3c(c2C1=O)CCC3	> 100 µM	> 100 µM	> 100 µM	36.3 µM	> 100 µM	80.8 µM	> 100 µM	> 100 µM	> 100 µM	> 100 µM	> 100 µM	74.9 µM	90.8 µM	> 100 µM	> 100 µM	> 100 µM	46.2 µM	> 100 µM	> 100 µM	> 100 µM
COc1ccc2nc3cc([N+](=O)[O-])ccc3c(Nc3ccc(S(=O)(=O)Nc4ncccn4)cc3)c2c1	> 100 µM	> 71.8 µM	> 100 µM	> 100 µM	> 100 µM	> 100 µM	92.4 µM	> 94.8 µM	> 100 µM	> 88.2 µM	> 100 µM	> 100 µM	> 100 µM	> 100 µM	> 100 µM	> 100 µM	> 100 µM	> 100 µM	> 100 µM	> 100 µM
COC(=O)c1sc2c(=O)c(C(=O)OC)c(C(=O)OC)sc2c(=O)c1C(=O)OC	> 100 µM	> 100 µM	> 100 µM	> 100 µM	> 100 µM	> 100 µM	> 100 µM	> 100 µM	> 100 µM	> 100 µM	> 100 µM	> 100 µM	> 100 µM	> 100 µM	> 100 µM	> 100 µM	> 100 µM	> 100 µM	> 100 µM	> 100 µM
N#CC1(C#N)[C@@H]2CCC=C(Sc3ccccc3)[C@@H]21	52.8 µM	33.1 µM	27.2 µM	32 µM	51.1 µM	30.7 µM	> 100 µM	34.8 µM	39.8 µM	> 100 µM	26.5 µM	26.8 µM	36.3 µM	53.6 µM	40.4 µM	27.5 µM	29.4 µM	47.2 µM	26 µM	28.9 µM
COc1ccc(N/N=C/C2=CC(C)(C)C(C#N)(C#N)C(O)=C2C#N)cc1	> 100 µM	> 100 µM	> 100 µM	49.8 µM	> 100 µM	75.6 µM	> 100 µM	> 100 µM	> 100 µM	> 100 µM	> 100 µM	> 100 µM	> 100 µM	> 100 µM	> 100 µM	> 100 µM	> 100 µM	> 100 µM	> 100 µM	> 100 µM
CCOC(=O)[C@@H](NC(=O)OC(C)(C)C)[C@@H](O)C(=O)OCC	> 100 µM	> 100 µM	> 100 µM	> 100 µM	> 100 µM	> 100 µM	> 100 µM	> 100 µM	> 100 µM	> 100 µM	> 100 µM	> 100 µM	> 100 µM	> 100 µM	> 100 µM	> 100 µM	> 100 µM	> 100 µM	> 100 µM	> 100 µM
Cc1nc(-n2nc(-c3ccccc3)cc2-c2ccccc2)sc1C(=O)/C=C/c1ccc([N+](=O)[O-])cc1	> 100 µM	> 52 µM	> 55 µM	> 80.6 µM	> 61.9 µM	> 85.7 µM	> 100 µM	> 100 µM	> 100 µM	> 70.6 µM	94.7 µM	43.5 µM	> 100 µM	> 69.3 µM	> 100 µM	> 100 µM	> 56.4 µM	> 67 µM	> 71.2 µM	> 66.8 µM
